Patent publication US20030175365A1, “Natural drug induced differentiation cancer cells to resemble normal cells” (priority 2002, published 2003)
Marks after values point to notes of the source that are not given here.

How the values were obtained:
[1] = test system: c-myb RNA; test: Oncogene expression by northern blot in ML-1 cells: c-myb; format: cell-based, Human
Description: (§1) Human myeloblastic leukemic cells (ML-1) were maintained in suspension culture in RPMI 1640 medium supplemented with 7.5% heat-inactivated FBS. Cells growth and viability were assayed by hemocytometer using trypan-blue dye exclusion.
(§2) RNA was isolated by the CsCl gradient modification. RNA pellets were washed twice by reprecipitation in ethanol and quantitated by absorbency at […]. RNA analyzed by electrophoresis of 15 μg of RNA through 1.2% agarose formaldehyde gels followed by northern blot transfer to nitrocellulose.
(§3) Single-standard uniformly labeled DNA probes were prepared. Probe of c-myc was a 1.7 Kb cla-Eco RI restriction fragment containing the 3′exon region of human c-myc and probe of c-myb was 1.0 Kb myb-specific Bam HI fragment. Probes for n-ras contained DNA fragments using a modification of the PCR technique. Probes for myb, myc and n-ras were isolated. The isolated fragments were labeled to high specific activity with […] (3000 ci/mmol). Prehybridization of the filter was performed. The hybridization mixer contained 50,000 cpm of probe. The probes were hybridized at 58° C. in 15 mM NaCl, […] sodium citrate for 3 hours. After hybridization, they were exposed to XAR-5 film. Oncogene expression was quantitated by densitometer scanning of the autoradiography.

[2] = test system: caspase-3; test: Determination of caspase activation (Ac-DEVD-AMC substrate, cell lysate); format: cell-based; settings: control 25.4 ± 3.0
Description: (§4) Neuroblastoma tumor cells, melanocytic and epithelial cells used in this experiment. Cells were grown routinely as monolayers in a 1:1 mixture of Eagle's minimum essential medium and Ham's nutrient mixture F-12 supplemented with 15% heat-inactivated fetal calf serum. Cells were used over a maximum of 15 passages to minimize intersubline differentiation.
Determination of Caspase Activation. The substrate used was Ac-DEVD-AMC, which was made to 5 mM stock in dimethylformamide. On the day of the assay, substrate stock was diluted in water to 500 μM and kept on ice. Cell lysate (20 μg) was diluted to equal volumes (20 μl) in Nonidet-P40 lysis buffer and 1/10th of the volume of substrate was added. Exactly 10 min later, the reaction was stopped by adding the mix into 2 ml of water. Fluorescence was read on a fluorometer at an excitation wavelength of 380 nm and emission wavelength of 460 nm.

[3] = test system: tumor suppressor p^53; test: p53 mutations by PCR-SSCP; format: cell-based
Description: The leukemic cancer cells and normal cells were cultured in RPMI 1640 medium supplement with 10% fetal bovine serum. All the exons of the p^53 were amplified by the polymease chain reaction (PCR) using specific oligonucleotide primers. The PCR products were subjected to single-strand conformation polymorphism (SSCP) analysis. […] Levels of DNA methylation were determined.

[4] = test system: Hela; test: Tumor cell proliferation inhibition, Hela; format: cell-based, Human; settings: 1 μg/ml drug, 72 hours
Description: (§5) Human tumor cell lines: Hela leukemia HL-60, malignant melanocarcinoma B16, oral epidermoid carcinoma (KB), lung carcinoma (A549), breast carcinoma MCF-7, adenocarcinoma of stomach.
(§6) Animal tumor cell lines: Walker carcinoma, LLC-WRC-256, malignant melanoma (RMMI 1846), 3T3,and S-180 sarcoma (CCRF-180). All lines were routinely cultured in the RPMI1640 medium supplemented 20% fetal calf serum. The experiment was carried out in 96 microplate, each well had […] and given desired concentration of 1 μg/ml (1 x 10^−6 g/ml) drug. Then the plate was incubated at 37° C. in an atmosphere of humidified air enriched with 5 percent carbon dioxide for 72 hours.
(§7) Inhibition percent rate of tumor cell proliferation was obtained according to the bellow formula. [formula]

[5] = test system: breast carcinoma MCF-7; test: Tumor cell proliferation inhibition, MCF-7; format: cell-based, Human; settings: 1 μg/ml drug, 72 hours
Description: as §5, §6, §7

[6] = test system: oral epidermoid carcinoma (KB); test: Tumor cell proliferation inhibition, KB; format: cell-based, Human; settings: 1 μg/ml drug, 72 hours
Description: as §5, §6, §7

[7] = test system: gastric cancer cells; test: Differentiation of gastric cancer cells (NBT, NSE); format: cell-based; settings: Gastric cancer cells + HHT; P < 0.001
Description: The gastric cancer cells and normal cells were cultured in PRMI 1640 medium supplement with 10% FCS serum. Other method is similar to example 1.

[8] = test system: Neuroblastoma tumor cells, melanocytic and epithelial cells; test: Apoptosis with HHT and APO-2L (filter binding assay); format: cell-based
Description: as §4
Cytotoxicity Assays. Etoposide sensitivity was measured by clonogenic assay. Five hundred cells were plated per 2-cm^2 dish. Cells were treated for 1 hour with HHT or medium. Results are the mean ±S.E. of three independent experiments and duplicate plates were used in each individual experiment. Apoptosis was quantified by the filter binding assay.

[9] = test system: TPA-stimulated mouse epidermis; test: [3H] thymidine incorporation (DNA synthesis) in TPA-stimulated mouse epidermis; format: in vivo; settings: TPA-treated mice
Description: It is known that tetradecanoyphorbol-13-acetate (TPA) is strong tumor promoter and TPA can remarkable increase [^3H] thymidine incorporation in mouse epidermis and then to induce Epidermis cancer.
ice were treated with TPA and the rate of [^3H] thymidine incorporation was determined 20 hours later. Male mice (7-9 weeks old) used for experiments. Only mice showing no hair regrowth following shaving were used. Animals were injected intraperitoneally (i.p.) with TPA or 95% saline. After 20 hours, mice were injected i.p. with 60 μCi of [^3H] thymidine (2 Ci/mmol) 20 minutes before sacrifice. Epidermal scrapings were prepared. Epidermis cancer cells were cultured in condition of example 1.

[10] = test system: tumor suppressor p^17; test: p17 allelic loss by PCR-SSCP; format: cell-based
Description: The p^17 is a tumor suppressor. The gastric cancer cells were used in this experiment. Gastric cancer cells and normal cells were cultured in RPMI 1640 medium supplement with 10% fetal bovine serum. All the exons of tumor suppressor p^17 were amplified by the polymease chain reaction (PCR) using specific oligonucleotide primers. The PCR products were subjected to single-strand conformation polymorphism (SSCP) analysis. A second PCR-SSCP analysis was performed. Levels of DNA methylation were determined.

[11] = test system: c-myc RNA; test: Oncogene expression by northern blot in ML-1 cells: c-myc; format: cell-based, Human
Description: as §1, §2, §3

[12] = test system: Human leukemia cells (HL-60); test: Apoptosis of cancer cells; format: cell-based; settings: drug concentration 20 μm
Description: Human leukemia cells (HL-60) were grown in RPMI Medium 1640 supplemented with 10% (v/v) heat-inactivated FBS (56° C. for 30 min) at 37° C. in a humidified 95% air/5% CO2 atmosphere. Cells were seeded at a level of 2×10^5 cells/ml. Cells were allowed to attain a maximum density of 1.2×10^6 cells/ml before being passed by dilution into fresh medium to a concentration of 2×10^5 cells/ml.
Apoptosis Determined by two Methods:
Method (1): Cell pellets containing 5×10^6 cells were fixed with 2.5% glutaraldehyde in cacodylate buffer (pH 7.4), dehydrated through graded alcohol, and infiltrated with LX-112 epoxy resin. After overnight polymerization at 60°C. […]
DNA electrophoresis: Untreated and treated HL-60 cells collected by centrifugation, washed in phosphate buffered saline and re-suspended at a concentration of 5×10^6 cells and 0.1% RNase A. The mixture was incubated at 37° C. for 30 min and then incubated for an additional 30 min at 37° C. with 1 ml protease K. Buffer was added and 25 μl of the tube content transferred to the Horizontal 1.5% agarose gel electrophoresis was performed at 2 V/cm. […] DNA fragmentation assays: DNA cleavage was performed, quantitation of fractional solubilized DNA by diphenylamine assay and the percentage of cells harboring fragmented DNA determined by in labeling techniques. […] DNA was precipitated with 0.5 N perchloric acid and quantitated using diphenylamine reagent. […]

[13] = test system: malignant melanocarcinoma B16; test: Tumor cell proliferation inhibition, B16; format: cell-based, Mouse; settings: 1 μg/ml drug, 72 hours
Description: as §5, §6, §7

[14] = test system: mice; test: LD50 in mice; format: in vivo; settings: I.P.
Description: (§8) Toxic doses for dogs: 0.16 mg/kg/day×7 of HHT was established as the toxic doses. Toxic doses for mice: In 38 normal mice after injection of HHT of 2 mg/kg/day×5 with the observation period of 5 days about 50% of the mice died.

[15] = test system: HL-60; test: Tumor cell proliferation inhibition, HL-60; format: cell-based, Human; settings: 1 μg/ml drug, 72 hours
Description: as §5, §6, §7

[16] = test system: dogs; test: Toxic doses for dogs; format: in vivo; settings: ×7
Description: as §8

[17] = test system: Epidermis cancer cells; test: Differentiation of epidermis cancer cells (NBT, NSE); format: cell-based, mouse; settings: Epidermis cancer cells + HHT; P < 0.001
[18] = test system: normal mice; test: Toxic doses for mice (repeated injection); format: in vivo; settings: 38 normal mice, injection of 2 mg/kg/day×5, observation period of 5 days
Description: as §8

[19] = test system: tumor suppressor p^16; test: Methylation of tumor suppressor p16 (PCR-based) in bladder cell lines; settings: Cancer cells treated by HHT (no treatment: 81.5; normal: 15.8)
Text: Bladder cell lines were used. Methods of RT-PCR were regular. PCR-based methylation determined by inability of some restriction enzymes to cut methylated sequences methods of determination was used to analyze the methylaton status of the p^16 and p^15 . PCR products were resolved on 2% agarose gels transferred to a nylon membrane and hydridized for the RT-PCR products. An undigested DNA control and MSPI-digested DNA control were examined.

[20] = test system: HL-60 cells; test: Induction of differentiation of human leukemic cells (NBT reduction, NSE staining); format: cell-based; settings: Leukemic cells + HHT; P < 0.001 vs leukemic cells
Description: Cell Lines. HL-60 cells were established from a patient with acute myeloid leukemia. The cells were cultured in culture flasks with RPMI plus 10% FCS.
Studies of Induction of Differentiation. Differentiation of HL-60 cells was assessed by their abilities to produced superoxide as measured by reduction of NBT, by NSE staining and by morphology as detected on cytospin preparations stained with Diff-Quick stain Set, and by analysis of membrane-bound differentiation markers with two-color immunofluorescence. Briefly, cells were preincubated at 4° C. for 60 min in 10% human AB serum and then with FITC-conjugated mouse IgGI isotype control. Analysis of fluorescence was performed on a flow cytometer.

For `COC(=O)C[C@](O)(CCCC(C)(C)O)C(=O)O[C@@H]1C(OC)=C[C@]23CCCN2CCc2cc4c(cc2[C@H]13)OCO4` [HHT, homoharringtonine], the “Inhibition (%) c-myb RNA” value ([1]; HHT concentration 10 ng/ml) was 65.0 ± 5.7%, the “Inhibition (%) c-myb RNA” value ([1]; HHT concentration 50 ng/ml) was 67.7 ± 6.8% and the Caspase-3 activity [2] was 150.5 ± 16. For the same molecule, the “Frequency of p^53 mutations (%)” value ([3]; Gastric cancer cells treated by HHT (no drug: 35)) was 5%, the “Inhibition T/C (%)” value ([3]; p^53 mutations, Gastric cancer cells treated by HHT) was 14.3 ± 1.5% and the “Inhibition (%)” value [4] was 75.6 ± 8.0%. For the same molecule, the “Inhibition (%)” value [5] was 78.5 ± 7.9%, the “Inhibition (%)” value [6] was 80.0 ± 8.5% and the “NBT (%)” value [7] was 58* %. The “NSE (%)” value [7] was 60* %, the “Apoptosis (%)” value ([8]; HHT 500 nM (control 5.0 ± 0.49)) was 39.5 ± 4.1% and the “DNA synthesis of TPA-stimulated mouse epidermis” value [9] was “remarkable inhibit”. The “Frequency of p^17 allelic loss (%)” value ([10]; Leukemic cancer cells treated by HHT (untreated: 40)) was 5%, the “Inhibition T/C (%)” value ([10]; p^17 allelic loss, Leukemic cancer cells treated by HHT) was 12.5 ± 1.2% and the “Inhibition (%) c-myc RNA” value ([11]; HHT concentration 10 ng/ml) was 70.5 ± 8.5%. For the same molecule, the “Inhibition (%) c-myc RNA” value ([11]; HHT concentration 50 ng/ml) was 70.8 ± 8.9%, the “Apoptosis (%)” value [12] was 68.3 ± 7.6% and the “Inhibition (%)” value [13] was 73.8 ± 8.1%. The LD50 [14] was 3.17 ± 0.19 mg/kg, the “Inhibition (%)” value [15] was 80.8 ± 9.0% and the Toxic dose [16] was 0.16 mg/kg/day. For the same molecule, the “NBT (%)” value [17] was 80* %, the “NSE (%)” value [17] was 78* % and the mice died [18] was “about 50%”. The “Methylation (%)” value [19] was 23.8^b %, the “NBT (%)” value [20] was 65* % and the “NSE (%)” value [20] was 62* %.

B1: APO-2L: also called TRAIL, has been shown to induce apoptosis of variety of cancer cell types (protein, UniProt P50591 1-281, looked up)
Tumor necrosis factor ligand …: MAMMEVQGGPSLGQTCVLIVIFTVLLQSLCVAVTYVYFTNELKQMQDKYSKSGIACFLKEDDSYWDPNDEESMNSPCWQVKWQLRQLVRKMILRTSEETISTVQEKQQNISPLVRERGPQRVAAHITGTRGRSNTLSSPNSKNEKALGRKINSWESSRSGHSFLSNLHLRNGELVIHEKGFYYIYSQTYFRFQEEIKENTKNDKQMVQYIYKYTSYPDPILLMKSARNSCWSKDAEYGLYSIYQGGIFELKENDRIFVSVTNEHLIDMDHEASFFGAFLVG
B1 was tested, and the “Apoptosis (%)” value ([8]; APO-2L (control 5.0 ± 0.49)) was 20.8 ± 2.0%.
